From ChEMBL document CHEMBL5465560, “Selectivity Literature for EUbOPEN Chemogenomic Library” (2024)

What was measured:
[1] = biological target: T1, Serine/threonine-protein kinase Nek9 (Homo sapiens) (UniProt Q8TD19); experiment: Selectivity interaction (KinomeScan (DiscoverX)) EUB0000229b NEK9; settings: at 10 µM
T1 sequence (whole entry): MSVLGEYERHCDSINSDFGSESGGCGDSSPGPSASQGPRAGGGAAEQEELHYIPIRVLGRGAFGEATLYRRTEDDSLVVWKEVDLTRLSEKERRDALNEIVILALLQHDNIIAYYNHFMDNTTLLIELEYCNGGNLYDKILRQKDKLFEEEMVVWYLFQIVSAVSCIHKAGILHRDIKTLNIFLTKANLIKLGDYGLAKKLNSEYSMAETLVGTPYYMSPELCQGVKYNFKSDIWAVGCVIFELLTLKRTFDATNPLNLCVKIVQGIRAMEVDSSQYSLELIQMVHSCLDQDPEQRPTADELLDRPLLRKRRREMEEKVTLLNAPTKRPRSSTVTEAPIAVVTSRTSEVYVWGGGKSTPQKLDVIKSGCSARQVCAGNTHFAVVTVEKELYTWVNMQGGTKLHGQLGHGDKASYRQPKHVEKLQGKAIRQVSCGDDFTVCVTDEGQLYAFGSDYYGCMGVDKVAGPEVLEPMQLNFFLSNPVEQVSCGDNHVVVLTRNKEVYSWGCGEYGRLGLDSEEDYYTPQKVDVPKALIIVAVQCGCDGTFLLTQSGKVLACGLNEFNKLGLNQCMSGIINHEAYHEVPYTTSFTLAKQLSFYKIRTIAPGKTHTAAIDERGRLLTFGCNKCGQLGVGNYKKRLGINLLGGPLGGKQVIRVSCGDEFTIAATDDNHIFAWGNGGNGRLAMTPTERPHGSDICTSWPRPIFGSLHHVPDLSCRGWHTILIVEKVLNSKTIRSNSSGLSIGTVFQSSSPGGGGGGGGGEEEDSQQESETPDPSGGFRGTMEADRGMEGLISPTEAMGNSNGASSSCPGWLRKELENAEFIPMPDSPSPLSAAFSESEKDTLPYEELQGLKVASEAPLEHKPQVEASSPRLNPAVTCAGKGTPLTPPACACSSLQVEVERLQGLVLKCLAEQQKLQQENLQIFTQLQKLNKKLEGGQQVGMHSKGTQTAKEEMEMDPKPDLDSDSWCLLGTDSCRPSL

[2] = biological target: T2, NUAK family SNF1-like kinase 2 (Homo sapiens) (UniProt Q9H093); experiment: Selectivity interaction (KinomeScan (DiscoverX)) EUB0000092b NUAK2; settings: at 10 µM
T2 sequence (whole entry): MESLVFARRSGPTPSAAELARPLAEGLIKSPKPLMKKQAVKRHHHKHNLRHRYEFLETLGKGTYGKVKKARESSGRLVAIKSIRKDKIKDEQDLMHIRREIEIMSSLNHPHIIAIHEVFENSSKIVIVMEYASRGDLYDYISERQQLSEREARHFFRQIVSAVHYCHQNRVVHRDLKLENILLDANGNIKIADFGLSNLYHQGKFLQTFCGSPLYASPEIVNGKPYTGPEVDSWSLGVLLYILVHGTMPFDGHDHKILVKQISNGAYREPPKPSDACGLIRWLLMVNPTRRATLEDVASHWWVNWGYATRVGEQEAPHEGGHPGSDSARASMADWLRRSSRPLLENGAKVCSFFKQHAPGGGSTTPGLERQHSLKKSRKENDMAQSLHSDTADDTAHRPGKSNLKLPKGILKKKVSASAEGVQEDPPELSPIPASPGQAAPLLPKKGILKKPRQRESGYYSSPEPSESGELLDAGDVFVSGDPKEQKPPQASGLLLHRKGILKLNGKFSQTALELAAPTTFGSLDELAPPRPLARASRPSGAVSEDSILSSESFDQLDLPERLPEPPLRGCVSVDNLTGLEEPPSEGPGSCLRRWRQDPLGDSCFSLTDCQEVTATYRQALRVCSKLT

[3] = biological target: Mitogen-activated protein kinase kinase kinase 20 (Homo sapiens) (UniProt Q9NYL2); experiment: Selectivity interaction (KinomeScan (DiscoverX)) EUB0000666a MAP3K20; settings: at 10 µM
[4] = biological target: High affinity nerve growth factor receptor (Homo sapiens, UniProt P04629); settings: at 10 µM
[5] = biological target: T3, Dual specificity mitogen-activated protein kinase kinase 4 (Homo sapiens) (UniProt P45985); experiment: Selectivity interaction (KinomeScan (DiscoverX)) EUB0000695a MAP2K4; settings: at 100 nM
T3 sequence (whole entry): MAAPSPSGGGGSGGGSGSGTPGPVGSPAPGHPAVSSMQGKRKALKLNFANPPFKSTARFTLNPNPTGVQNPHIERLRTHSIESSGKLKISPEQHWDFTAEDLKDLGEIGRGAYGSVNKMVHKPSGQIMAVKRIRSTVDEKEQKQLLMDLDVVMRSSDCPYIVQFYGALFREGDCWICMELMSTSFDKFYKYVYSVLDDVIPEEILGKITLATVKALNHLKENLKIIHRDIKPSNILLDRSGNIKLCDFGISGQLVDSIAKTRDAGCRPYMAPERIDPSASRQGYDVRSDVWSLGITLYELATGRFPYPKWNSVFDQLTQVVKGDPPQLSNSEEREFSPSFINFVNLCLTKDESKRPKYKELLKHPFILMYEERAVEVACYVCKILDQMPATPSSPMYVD

[6] = biological target: Proto-oncogene tyrosine-protein kinase Src (Homo sapiens, UniProt P12931); experiment: Selectivity interaction (KinomeScan (DiscoverX)) EUB0000595a SRC; settings: at 10 µM
[7] = biological target: T4, Serine/threonine-protein kinase DCLK3 (Homo sapiens) (UniProt Q9C098); experiment: Selectivity interaction (Ambit KINOMEscan and KiNATiv profiling in Jurkat cells) EUB0000090b DCLK3; type: cell-based; settings: at 1 µM
T4 sequence (whole entry): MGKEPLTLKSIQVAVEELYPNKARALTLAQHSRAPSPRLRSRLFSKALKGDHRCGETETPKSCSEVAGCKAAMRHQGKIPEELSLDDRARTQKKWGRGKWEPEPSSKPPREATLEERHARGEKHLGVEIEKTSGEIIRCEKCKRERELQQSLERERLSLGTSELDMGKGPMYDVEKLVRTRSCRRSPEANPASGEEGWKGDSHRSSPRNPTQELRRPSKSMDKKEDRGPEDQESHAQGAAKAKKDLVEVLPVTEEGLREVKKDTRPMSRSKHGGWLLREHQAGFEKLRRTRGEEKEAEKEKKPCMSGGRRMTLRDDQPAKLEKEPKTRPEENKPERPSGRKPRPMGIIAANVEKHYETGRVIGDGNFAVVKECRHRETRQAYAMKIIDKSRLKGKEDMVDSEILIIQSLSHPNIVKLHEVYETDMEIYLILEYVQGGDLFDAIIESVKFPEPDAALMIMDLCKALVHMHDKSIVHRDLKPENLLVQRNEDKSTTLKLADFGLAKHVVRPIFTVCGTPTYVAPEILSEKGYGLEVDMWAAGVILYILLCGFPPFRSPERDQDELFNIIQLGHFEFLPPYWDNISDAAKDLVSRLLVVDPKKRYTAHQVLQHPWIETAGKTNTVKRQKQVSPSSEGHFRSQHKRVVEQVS

[8] = biological target: Citron Rho-interacting kinase (Homo sapiens) (UniProt O14578); experiment: Selectivity interaction (KinomeScan (DiscoverX)) EUB0001619a CIT; settings: at 1 µM
Citron Rho-interacting kinase (Homo sapiens), sequence (O14578 whole entry): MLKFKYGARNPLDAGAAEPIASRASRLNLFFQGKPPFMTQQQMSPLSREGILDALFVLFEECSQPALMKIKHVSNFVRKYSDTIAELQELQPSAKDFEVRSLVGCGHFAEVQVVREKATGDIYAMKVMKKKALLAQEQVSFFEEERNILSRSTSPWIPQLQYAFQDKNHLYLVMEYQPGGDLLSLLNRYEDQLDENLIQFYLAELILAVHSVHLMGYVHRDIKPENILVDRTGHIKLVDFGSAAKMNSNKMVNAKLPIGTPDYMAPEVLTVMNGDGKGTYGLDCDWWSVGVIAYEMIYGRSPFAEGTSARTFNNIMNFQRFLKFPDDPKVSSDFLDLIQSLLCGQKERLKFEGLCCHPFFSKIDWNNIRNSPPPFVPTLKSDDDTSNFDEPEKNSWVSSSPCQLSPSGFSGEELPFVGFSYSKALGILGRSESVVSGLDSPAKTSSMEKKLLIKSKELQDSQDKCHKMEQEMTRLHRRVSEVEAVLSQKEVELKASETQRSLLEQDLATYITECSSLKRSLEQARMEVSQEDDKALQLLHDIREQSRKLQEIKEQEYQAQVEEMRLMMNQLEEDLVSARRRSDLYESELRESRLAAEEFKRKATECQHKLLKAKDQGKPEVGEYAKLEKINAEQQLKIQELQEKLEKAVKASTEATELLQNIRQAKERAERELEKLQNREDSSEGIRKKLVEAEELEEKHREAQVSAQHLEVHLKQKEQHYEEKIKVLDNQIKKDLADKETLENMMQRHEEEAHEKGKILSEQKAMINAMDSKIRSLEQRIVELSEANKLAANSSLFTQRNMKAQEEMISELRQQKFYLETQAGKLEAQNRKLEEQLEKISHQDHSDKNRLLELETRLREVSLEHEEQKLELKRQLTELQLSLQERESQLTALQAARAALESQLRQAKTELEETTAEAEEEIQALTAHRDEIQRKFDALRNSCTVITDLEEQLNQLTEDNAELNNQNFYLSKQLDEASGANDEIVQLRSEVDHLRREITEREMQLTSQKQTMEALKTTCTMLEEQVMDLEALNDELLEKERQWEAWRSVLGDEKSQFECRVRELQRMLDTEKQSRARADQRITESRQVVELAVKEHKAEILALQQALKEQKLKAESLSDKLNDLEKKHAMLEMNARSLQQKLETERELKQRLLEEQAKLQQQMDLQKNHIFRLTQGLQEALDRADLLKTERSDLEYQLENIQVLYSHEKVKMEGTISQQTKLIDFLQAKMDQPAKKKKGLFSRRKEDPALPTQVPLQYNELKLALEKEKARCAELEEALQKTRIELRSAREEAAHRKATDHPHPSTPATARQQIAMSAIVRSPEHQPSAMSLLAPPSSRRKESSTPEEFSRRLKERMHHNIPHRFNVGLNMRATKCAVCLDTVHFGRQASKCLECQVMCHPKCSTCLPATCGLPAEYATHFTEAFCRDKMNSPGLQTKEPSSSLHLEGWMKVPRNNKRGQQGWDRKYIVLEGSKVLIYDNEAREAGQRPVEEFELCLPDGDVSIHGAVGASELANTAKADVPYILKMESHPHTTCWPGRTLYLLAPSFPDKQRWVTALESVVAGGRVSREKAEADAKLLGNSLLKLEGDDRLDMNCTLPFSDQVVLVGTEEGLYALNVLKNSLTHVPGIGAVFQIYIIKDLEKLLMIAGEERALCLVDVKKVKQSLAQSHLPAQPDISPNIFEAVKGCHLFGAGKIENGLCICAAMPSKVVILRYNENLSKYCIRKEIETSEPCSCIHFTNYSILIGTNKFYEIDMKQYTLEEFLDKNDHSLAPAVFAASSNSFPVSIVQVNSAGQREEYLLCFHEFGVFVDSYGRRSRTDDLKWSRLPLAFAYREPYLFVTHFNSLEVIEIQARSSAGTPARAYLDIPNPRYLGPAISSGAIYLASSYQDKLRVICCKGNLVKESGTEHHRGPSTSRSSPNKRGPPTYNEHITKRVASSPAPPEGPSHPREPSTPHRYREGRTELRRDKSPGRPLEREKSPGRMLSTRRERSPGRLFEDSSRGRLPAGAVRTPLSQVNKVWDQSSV

High affinity nerve growth factor receptor, sequence (P04629 33-796 limits assumed): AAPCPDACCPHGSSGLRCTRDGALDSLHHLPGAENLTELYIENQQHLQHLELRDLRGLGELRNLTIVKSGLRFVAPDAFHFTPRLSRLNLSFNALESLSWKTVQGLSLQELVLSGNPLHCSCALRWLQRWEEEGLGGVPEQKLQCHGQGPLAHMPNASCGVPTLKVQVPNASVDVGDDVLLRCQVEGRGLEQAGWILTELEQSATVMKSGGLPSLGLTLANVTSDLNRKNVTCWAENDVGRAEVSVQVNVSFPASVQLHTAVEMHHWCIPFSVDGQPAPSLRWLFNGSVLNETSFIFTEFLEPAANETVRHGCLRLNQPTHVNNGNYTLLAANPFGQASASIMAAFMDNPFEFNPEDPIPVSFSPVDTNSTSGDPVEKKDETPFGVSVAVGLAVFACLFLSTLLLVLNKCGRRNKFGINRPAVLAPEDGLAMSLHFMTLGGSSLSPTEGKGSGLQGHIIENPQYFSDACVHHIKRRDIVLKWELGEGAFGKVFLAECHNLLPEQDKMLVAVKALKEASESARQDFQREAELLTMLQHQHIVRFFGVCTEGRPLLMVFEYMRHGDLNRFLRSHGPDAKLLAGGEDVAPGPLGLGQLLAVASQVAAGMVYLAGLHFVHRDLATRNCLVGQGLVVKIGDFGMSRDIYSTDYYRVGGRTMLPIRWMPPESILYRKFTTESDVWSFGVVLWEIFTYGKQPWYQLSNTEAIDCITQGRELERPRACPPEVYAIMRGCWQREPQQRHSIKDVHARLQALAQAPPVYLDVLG
Mitogen-activated protein kinase kinase kinase 20 (Homo sapiens), sequence (Q9NYL2 2-800 limits assumed): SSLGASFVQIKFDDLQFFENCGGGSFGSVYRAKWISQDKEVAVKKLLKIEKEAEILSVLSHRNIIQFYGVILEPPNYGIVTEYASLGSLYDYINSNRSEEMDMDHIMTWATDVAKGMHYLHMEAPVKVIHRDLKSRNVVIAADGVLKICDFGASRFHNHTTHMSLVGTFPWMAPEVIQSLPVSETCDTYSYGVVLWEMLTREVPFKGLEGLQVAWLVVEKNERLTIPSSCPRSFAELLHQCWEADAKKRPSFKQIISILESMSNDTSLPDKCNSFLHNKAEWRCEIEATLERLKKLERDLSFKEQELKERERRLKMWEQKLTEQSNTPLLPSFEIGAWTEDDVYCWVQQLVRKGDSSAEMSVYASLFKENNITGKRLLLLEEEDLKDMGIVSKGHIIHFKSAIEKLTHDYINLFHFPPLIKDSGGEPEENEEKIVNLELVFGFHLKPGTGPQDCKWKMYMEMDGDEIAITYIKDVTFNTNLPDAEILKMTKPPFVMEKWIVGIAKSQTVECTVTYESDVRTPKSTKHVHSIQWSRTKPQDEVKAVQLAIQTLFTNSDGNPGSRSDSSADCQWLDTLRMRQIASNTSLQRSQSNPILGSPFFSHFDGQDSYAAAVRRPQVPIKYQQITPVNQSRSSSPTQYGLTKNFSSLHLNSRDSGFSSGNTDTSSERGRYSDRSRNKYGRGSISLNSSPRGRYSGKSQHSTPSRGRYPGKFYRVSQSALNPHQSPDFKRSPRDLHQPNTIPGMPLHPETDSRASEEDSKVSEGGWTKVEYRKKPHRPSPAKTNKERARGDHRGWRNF
Proto-oncogene tyrosine-protein kinase Src, sequence (P12931 2-536 limits assumed): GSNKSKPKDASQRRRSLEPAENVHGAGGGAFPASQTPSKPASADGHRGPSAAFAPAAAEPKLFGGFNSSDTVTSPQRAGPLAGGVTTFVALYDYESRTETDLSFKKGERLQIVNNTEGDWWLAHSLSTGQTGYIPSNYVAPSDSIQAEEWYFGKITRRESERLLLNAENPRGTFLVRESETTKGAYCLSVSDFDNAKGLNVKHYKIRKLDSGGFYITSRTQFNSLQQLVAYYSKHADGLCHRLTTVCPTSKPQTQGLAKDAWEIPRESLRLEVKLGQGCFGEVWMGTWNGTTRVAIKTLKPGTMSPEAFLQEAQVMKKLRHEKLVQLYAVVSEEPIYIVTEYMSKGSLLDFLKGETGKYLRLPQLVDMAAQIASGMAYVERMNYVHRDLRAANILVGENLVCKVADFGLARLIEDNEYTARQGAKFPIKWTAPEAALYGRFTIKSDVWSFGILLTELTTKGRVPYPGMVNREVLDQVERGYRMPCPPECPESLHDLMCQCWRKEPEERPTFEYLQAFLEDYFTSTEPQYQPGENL

Structure (SMILES): COc1cc(N(C)c2ccnc3ccc(C(F)(F)F)cc23)cc(OC)c1OC
- % binding [1]: 93%

Structure (SMILES): CCC(=O)N1CCN(c2ccc(-n3c(=O)ccc4cnc5ccc(-c6cnc7ccccc7c6)cc5c43)cc2C(F)(F)F)CC1
- % of control [2]: 100%

Structure (SMILES): O=C(NOC[C@H](O)CO)c1ccc(F)c(F)c1Nc1ccc(I)cc1F
- % of control [3]: 88%

Structure (SMILES): Cc1cc([C@@H](C)Nc2ccccc2C(=O)O)c2nc(N3CCOCC3)cc(=O)n2c1 [AZD-6482]
- % of control [4]: 88%

Structure (SMILES): Cc1cc(F)c(C(=O)Nc2cccc(-c3nncn3C(C)C)n2)cc1-n1cnc(C2CC2)c1
- % of control [5]: 100%

Structure (SMILES): COCC(=O)NC/C=C/c1ccc2ncnc(Nc3ccc(Oc4ccc(C)nc4)c(C)c3)c2c1 [CP-724714]
- % of control [6]: 97%

Structure (SMILES): CN(C)C/C=C/C(=O)Nc1ccc(C(=O)N2CCCC(Nc3ncc(Cl)c(-c4c[nH]c5ccccc45)n3)C2)cc1 (stereo not drawn)
- % of control [7]: 76%

Structure (SMILES): N#Cc1cccc(-c2c[nH]c3ncnc(N4CCOCC4)c23)c1
- % of control [8]: 100%
